According to a melting point compilation (Tetko et al.; mined from patent text by program, amines drawn as free bases though some values may be those of a salt):

Compound | melting point [°C]
C#CCOc1cc(-c2ncc(C(F)(F)F)cc2Cl)c(F)cc1Cl | 97 to 98
Cc1ccc2nc3c(nc2c1)SC(C#N)=C(C#N)S3 | 213 to 215
CN(C(=O)c1sc2cc(C(=O)O)ccc2c1S)c1ccc2sc3ccccc3c(=O)c2c1 | 210 to 212
Oc1ccc(O)c2c1CC(O)C(O)C2 (centres undefined) | 221 to 224
COc1ccc(C2Sc3c(ccc4ccccc34)N(CCN(C)C)C(=O)C2OC(=O)c2ccccc2O)cc1 (centres undefined) | 150 to 151
O=C(NCc1ccccc1)c1ccnc(NC(=O)c2ccc(F)cc2)c1 | 170 to 171
O=C=Nc1cc(Cl)c(Br)cc1CBr | 48 to 50
NS(=O)(=O)c1c(Cl)cccc1Cn1cncn1 | 175 to 178
CSc1ccc(C=CC#N)cc1 | 79
CC(=O)c1c(C)c2c(c(C)c1O)OC(C)(C)C(C)C2 (centres undefined) | 87 to 90
CC1(C)Oc2ccc([N+](=O)[O-])cc2C(n2ccccc2=O)=C1CN | 231
O=C(CN1C(=O)c2ccccc2C1=O)NCc1nncn1-c1ccc(Cl)cc1C(=O)c1ccccc1 | 214 to 215
CCOC(=O)/C=C/c1cc(F)c2ncc(C(=O)NCc3ccc(Cl)cc3)c(O)c2c1 | 278 to 280
Nc1ccc(F)cc1-c1nc[nH]n1 | 142 to 144
O=C1O[C@@H](CO)CN1c1ccc(I)c(F)c1 | 116 to 117
Cc1ccc2c(c1)c1cc(-c3cccc(Br)c3)c(=O)n(C)c1n2C | 215 to 216
COC(=O)CC(C(=O)c1ccc(SC)cc1)c1ccccc1 (centres undefined) | 82.4 to 83
CCN(CC)CCOc1ccc(Nc2ncc3c(n2)N(C)C(=O)N(c2ccccc2C)C3)cc1 | 132
Cc1c(C)n(CC2CC2)c2c(OCc3ccc(F)cc3)nncc12 | 137 to 138
COc1ccc(C(NCCC2CCCCC2)c2cccc(Nc3c(N)c(=O)c3=O)c2)cc1 (centres undefined) | 168 to 171
CCNc1nc2ccccc2n2cnnc12 | 254 to 256

Compound | melting point [°C]
C=CCN(CC=C)Cc1noc(-c2ncn3c2CN(C)C(=O)c2c(Cl)cccc2-3)n1 | 125 to 130
CC(C)(C)OC(=O)N1CCC(OCc2ccccc2)C1CC(=O)Cn1cnc2cccc(F)c2c1=O (centres undefined) | 221
COC(=O)c1nc2ccccc2c(N)c1C(=O)OC | 167 to 168
O=C(Nc1nccs1)C(CC1CCCC1)c1ccc(F)c(C(F)(F)F)c1 (centres undefined) | 125 to 127
CN1C(=O)C(=O)N(Cc2ccccc2)CC1(CCOC1CCCCO1)c1ccc(Cl)c(Cl)c1 (centres undefined) | 178
CCCn1c(=O)c2c(nc(/C=C/c3ccc4c(c3)OCCO4)n2C)n(CCC)c1=O | 182
O=C(O)CCNC(=O)c1ccc(-c2ccccc2OC2OC(CO)C(O)C(O)C2O)cc1 (centres undefined) | 101 to 104
CN(C)S(=O)(=O)NCc1ccc(C(c2cc(F)ccc2F)S(=O)(=O)c2ccc(Cl)cc2)nc1 (centres undefined) | 177 to 178
Cc1cc(S(=O)(=O)N2c3ccccc3-c3ccc(F)cc3C2C)ccc1O (centres undefined) | 196
COc1ccc(-c2ccc3c(C)c(OC)ccc3c2)cc1 | 136 to 138
Cn1ncnc1COc1nc2c(-c3ccc(F)cc3)nncn2c1-c1ccccc1 | 130
COc1ccc(Cn2c(=O)c3ccc([N+](=O)[O-])cc3n(CCCCBr)c2=O)cc1 | 122 to 123
O=C(O)c1cn(C2CC2)c2c(F)c(N3CCC(n4cncn4)C3)c(F)cc2c1=O (centres undefined) | 220 to 221
CC(=O)Nc1nc2c(Oc3cc(N4CCN(C(C)c5ccc(F)cc5)CC4)ncn3)cccc2o1 (centres undefined) | 200
CC(C)COc1ccc(Br)cc1OCC(C)C | 47
CC(C)(C)OC(=O)NCc1cccc(OCCC2Oc3ccccc3N(Cc3ccccc3Cl)C2=O)c1 (centres undefined) | 115 to 116
Cc1[nH]c(=O)[nH]c1-c1cc(C(C)(C)C)c(O)c(C(C)(C)C)c1 | > 270
COCCOc1nc(Nc2cccc(NS(C)(=O)=O)c2)nc2[nH]cnc12 | 201 to 204
COC(=O)c1ccc(-c2cccc(C=O)c2)cc1 | 95 to 97
CCN1CCC(c2ccc(Br)cc2)CC1 | 33 to 34

Further lines, results first:

melting point [°C] | Compound
180 | CC(SC1COC(c2ccc(C(=O)Nc3ccc(OC(F)(F)F)cc3)cc2)OC1)C(O)(Cn1cncn1)c1ccc(F)cc1F (centres undefined)
207 to 210 | O=C1C(c2cc3c(cc2O)OCCC3)c2ccccc2N1C(c1ccccc1)c1ccccc1 (centres undefined)
73 to 74 | CCOC(=O)c1c(N)nc(C)c(C(=O)CCCCCCCCCCBr)c1-c1cccc([N+](=O)[O-])c1
92 to 97 | CCOC(=O)CC[C@H](NC(=O)c1ccc(N)c(F)c1)C(=O)OCC
107 | CCOC(=O)/C=C(C)/C=C/C=C(\C)C1=Cc2cc(Cl)cc(C)c2OC1
197 to 200 | O=C1c2ccccc2C(O)(c2ccc(Cl)cc2)N1Cc1ccc([N+](=O)[O-])cc1 (centres undefined)
224 to 225 | O=C(c1ccc(Cl)cc1)N(c1ccccc1)c1ccc(O)cc1
224 to 226 | O=C1CCCc2ccc([N+](=O)[O-])cc2N1
152 to 154 | CC(C)(C)OC(=O)NCC(NC(=O)OC(C)(C)C)C(=O)NCCNC(=O)OCc1ccccc1 (centres undefined)
95 to 97 | CCOC(=O)Cc1ccc2c(c1)C(=O)C(NC(=O)OC)CC2 (centres undefined)
61 to 62.5 | CS(=O)(=S)OCCCCC(=O)O (centres undefined)
146 | COc1cc2c(cc1O)C(Cc1cc(Br)c(OC)cc1[N+](=O)[O-])N(C)CC2 (centres undefined)
188 to 191 | Cc1ccc(C(=O)c2cccc3c2CCC3C(N)=O)cc1 (centres undefined)
180 | CN(CC(=O)OC(C)(C)C)C[C@@H]1CC(c2ccc(-c3ccc(N4C[C@H](Cn5ccnn5)OC4=O)cc3F)cn2)=NO1
131 to 132 | COC(=O)c1c(C)c(N=O)c2ccccn12
91 to 93 | CCc1nn2c(-c3ccc(Cl)cc3Cl)nc(C)nc2c1C(CC)CC
216 to 218 | Cc1nc(N(C)c2cc(Cl)cc(Cl)c2)sc1-c1ccnc(Nc2ccc(N3CCOCC3)cc2)n1
143 to 148 | Brc1cc(N2CCOCC2)ccc1/C=C/c1cc(/C=C/c2ccc3cc[nH]c3c2)[nH]n1
57 to 58 | CCCc1c(C=O)ncn1S(=O)(=O)N(C)C
51 to 61 | CCCc1ccc(NC(=O)c2cccnc2NCc2ccc(OC)nc2)cc1C(F)(F)F
140 to 141 | Cn1ncc(N2CCCC2)c(-c2ccccc2C=O)c1=O
225 to 230 | CN(C)C=CC(=O)c1ccc(C(=O)N2Cc3ccnn3Cc3ccccc32)cc1
70 to 79 | CSC(Oc1cc(C)c2ncc(I)cc2c1)C(=O)NC(C)(C#N)CF (centres undefined)
65 | CS(=O)(=O)c1nnc(F)s1
172 to 174 | Fc1ccc(-c2nc(SCCCCSc3nc(-c4ccc(F)cc4)c(-c4ccc(F)cc4)[nH]3)[nH]c2-c2ccc(F)cc2)cc1
187 | COc1cccc(Nc2nc(N)nc3c2-c2ccccc2C3)c1
203 to 205 | Fc1ccc(C2=Nc3cccnc3Nc3ccccc32)cc1
196 to 197 | O=C(NCCO)c1cccc(-c2ccc3ccn(-c4ncc(Cl)cc4Cl)c3n2)c1
